Data taken from patent US20150141381A1, “TETRACYCLINE COMPOUNDS HAVING TARGET THERAPEUTIC ACTIVITIES” (Paratek Pharmaceuticals, Inc., priority 2001, published 2015).

Assays:
[1] = system: E. coli mL308 225; experiment: In Vitro Anti-Bacterial Activity Assay (MIC), gram negative; type: cell-based; conditions: Escherichia coli, ML308225, 18 h, gram negative bacteria; read-out: Antibiotic Activity Gram − (MIC)
[2] = system: S. aureus RN450; experiment: In Vitro Anti-Bacterial Activity Assay (MIC), gram positive; type: cell-based; conditions: Staphylococcus aureus, RN450, 18 h, gram positive bacteria; read-out: Antibiotic Activity Gram + (MIC)

Row | SMILES | MIC [1] [µg/mL] | MIC [2] [µg/mL]
1 | CNCc1cc(N(C)C)c2c(c1O)C(=O)C1=C(O)[C@]3(O)C(=O)C(C(N)=O)=C(O)[C@@H](N(C)C)[C@@H]3C[C@@H]1C2 | > 4 | < 4
2 | CN(C)[C@@H]1C(O)=C(C(N)=O)C(=O)[C@@]2(O)C(O)=C3C(=O)c4c(O)ccc(Cl)c4C[C@H]3C[C@@H]12 | < 4 | < 4
3 | Cc1ccc(-c2ccc(O)c3c2C[C@H]2C[C@H]4[C@H](N(C)C)C(O)=C(C(N)=O)C(=O)[C@@]4(O)C(O)=C2C3=O)cn1 | < 4 | < 4
4 | CCNCc1cc(N(C)C)c2c(c1O)C(=O)C1=C(O)[C@]3(O)C(=O)C(C(N)=O)=C(O)[C@@H](N(C)C)[C@@H]3C[C@@H]1C2 | > 4 | < 4
5 | CN(C)[C@@H]1C(O)=C(C(N)=O)C(=O)[C@@]2(O)C(O)=C3C(=O)c4c(O)ccc(-c5ccncc5F)c4C[C@H]3C[C@@H]12 | < 4 | < 4
6 | CN(C)c1cc(-c2ccccn2)c2c(c1O)C(=O)C1=C(O)[C@]3(O)C(=O)C(C(N)=O)=C(O)[C@@H](N(C)C)[C@@H]3C[C@@H]1C2 | > 4 | < 4
7 | CC(=O)Nc1cc(-c2ccccn2)c2c(c1O)C(=O)C1=C(O)[C@]3(O)C(=O)C(C(N)=O)=C(O)[C@@H](N(C)C)[C@@H]3C[C@@H]1C2 | > 4 | < 4
8 | Cc1cc(-c2ccccn2)c2c(c1O)C(=O)C1=C(O)[C@]3(O)C(=O)C(C(N)=O)=C(O)[C@@H](N(C)C)[C@@H]3C[C@@H]1C2 | > 4 | < 4
9 | CN(C)[C@@H]1C(O)=C(C(N)=O)C(=O)[C@@]2(O)C(O)=C3C(=O)c4c(O)c(S(=O)(=O)O)cc(Cl)c4C=C3C[C@@H]12 | > 4 | > 4
10 | CN(C)c1ccc(O)c2c1C[C@H]1C[C@H]3[C@H]([N+](C)(C)C)C(O)=C(C(N)=O)C(=O)[C@@]3(O)C(O)=C1C2=O | > 4 | < 4
11 | NC(=O)C1=C(O)C[C@@H]2C[C@@H]3Cc4cccc(O)c4C(=O)C3=C(O)[C@]2(O)C1=O | < 4 | < 4
12 | CN(C)c1ccc(O)c2c1C[C@H]1C[C@H]3CC(O)=C(C(N)=O)C(=O)[C@@]3(O)C(O)=C1C2=O | < 4 | < 4
13 | CC1C(C(=O)[C@@H]2CC(=O)C(C(N)=O)=C(O)[C@H]2N(C)C)=C(C(=O)NCC(C)(C)C)C(=O)c2c(O)cccc21 (stereo partly drawn) | > 4 | > 4
14 | CN(C)[C@@H]1C(O)=C(C(N)=O)C(=O)[C@@]2(O)C(O)=C3C(=O)c4c(O)ccc(-n5cccn5)c4C[C@H]3C[C@@H]12 | < 4 | < 4
15 | CN(C)[C@@H]1C(O)=C(C(N)=O)C(=O)[C@@]2(O)C(O)=C3C(=O)c4c(O)ccc(S(=O)(=O)O)c4C[C@H]3C[C@@H]12 | > 4 | > 4
16 | CN(C)[C@@H]1C(O)=C(C(N)=O)C(=O)[C@@]2(O)C(O)=C3C(=O)c4c(O)cc(Cl)c(N)c4C[C@H]3C[C@@H]12 | > 4 | > 4
17 | NC(=O)C1=C(O)C[C@@H]2C[C@@H]3Cc4ccc(CN5CCCCC5)c(O)c4C(=O)C3=C(O)[C@]2(O)C1=O | > 4 | > 4
18 | COC1C(C(N)=O)=C(O)[C@@H](N(C)C)[C@@H]2[C@@H](O)[C@H]3C(=C(O)[C@]12O)C(=O)c1c(O)cccc1[C@@H]3C (stereo partly drawn) | > 4 | > 4
19 | CCCCOC1C(C(N)=O)=C(O)[C@@H](N(C)C)[C@@H]2[C@@H](O)[C@H]3C(=C(O)[C@]12O)C(=O)c1c(O)cccc1[C@@H]3C (stereo partly drawn) | > 4 | > 4
20 | CN(C)c1cc2c(c3c1C[C@H]1C[C@H]4[C@H](N(C)C)C(O)=C(C(N)=O)C(=O)[C@@]4(O)C(O)=C1C3=O)OC(=O)N(CC(C)(C)C)C2 | > 4 | > 4
21 | CN(C)[C@@H]1C(O)=C(C(N)=O)C(=O)[C@@]2(O)C(O)=C3C(=O)c4c(O)ccc(Cl)c4[C@](C)(O)[C@H]3C[C@@H]12 | > 4 | < 4
